Source: EPA's ToxValDB 9.5 (doi:10.2903/j.efsa.2008.147r)

Assays:
Canidae = settings: chronic, oral, Dog Other, clinical signs
Aphidius rhopalosiphi = settings: not reported
Apis mellifera = settings: acute; duration: 48 hours; dermal; mortality
Daphnia magna = settings: chronic/long-term; duration: 21 days; reproduction

CC[C@H](C)[C@H]1O[C@]2(C=C[C@@H]1C)C[C@@H]1C[C@@H](C/C=C(\C)[C@@H](O[C@H]3C[C@H](OC)[C@@H](O[C@H]4C[C@H](OC)[C@@H](O)[C@H](C)O4)[C@H](C)O3)[C@@H](C)/C=C/C=C3\CO[C@@H]4[C@H](O)C(C)=C[C@@H](C(=O)O1)[C@]34O)O2.CO[C@H]1C[C@H](O[C@H]2[C@H](C)O[C@@H](O[C@@H]3/C(C)=C/C[C@@H]4C[C@@H](C[C@]5(C=C[C@H](C)[C@@H](C(C)C)O5)O4)OC(=O)[C@@H]4C=C(C)[C@@H](O)[C@H]5OC/C(=C\C=C\[C@@H]3C)[C@]54O)C[C@@H]2OC)O[C@@H](C)[C@@H]1O [Abamectin]
NOAEL (Canidae; duration: 18 weeks): 0.25 mg/kg-day
NOAEL (Canidae; duration: 53 weeks): 0.25 mg/kg-day
LC50 (Tagia sp.; acute, duration: 14 days, mortality): 33 mg/kg
NOEC (Tagia sp.; chronic/long-term): > 0.72 mg/kg
NOAEL (Rattus norvegicus; acute, clinical signs): 0.5 mg/kg-day
LD50 (Rattus norvegicus; acute, oral, mortality): 8.7 mg/kg-day
NOEC (Rattus norvegicus; chronic): 0.12 mg/kg-day
LEL (Aphidius rhopalosiphi; mortality): 4.32 g/ha
LEL (Aphidius rhopalosiphi; reproduction): 4.32 g/ha
LD50 (Anas platyrhynchos; acute, oral, unspecified, mortality): ≤ 77 mg/kg-day
NOEC (Anas platyrhynchos; reproductive, M): 1.33 mg/kg-day
LC50 (Anas platyrhynchos; short-term, oral, feed, mortality): 48.6 mg/kg-day
LD50 (Apis mellifera): 0.0022 µg/piece
NOEC (Daphnia magna): 1e-05 mg/L
LC50 (Oncorhynchus mykiss; acute, duration: 96 hours, mortality): 3.6 ng/mL
NOEC (Oncorhynchus mykiss; chronic/long-term, duration: 28 days): 0.00052 mg/L
